Measurements taken from patent US20220304978A1, “INHIBITING MESANGIAL CELL ACTIVATION” (Chinook Therapeutics, Inc., priority 2019, published 2022).

System: kidney tissue of g-ddY mice
Test: RNA-seq differential gene expression in kidney tissue of g-ddY mice
Format: in vivo, mouse
Procedure: RNA isolation and sequencing libraries were generated using standard protocols. Sequencing was performed using an Illumina NextSeq500 using manufacturer's instructions with a read length of 75 bp and a read depth of 30 million. Raw data was assembled to FASTQ files. Following QC analysis, high quality sequencing reads (e.g., reads with a Phred quality score >36) were aligned to the mouse reference genome (GRCm38-mm10) using the default parameters of the align algorithm and transcript count tables of each library was generated using the default parameters of the featureCounts algorithm of the RSubread package (Liao Y, Smyth GK, Shi W, 2019). High quality sequencing reads mapped to 27,129 genes. Following additional QC of low count filtering (i.e. transcripts <10 counts across all samples), 16,207 genes were identified and used for further analysis. The remaining sequencing read counts of the included 16,207 genes were normalized to library size, log-transformed, and were quantified as counts per million (CPM). Select RNA-seq counts were validated using qPCR. Sequencing read counts (CPM) were used for identification of differential gene expression between specified populations using the quasi-likelihood methodology of the edgeR package. […] MA plots were generated using edgeR. Heatmaps and other plots were generated using the gplots and ggplot2 package.

[1] = 20 mg/kg/day vs control, cell proliferation signaling
[2] = 20 mg/kg/day vs control, inflammatory response signaling
[3] = 20 mg/kg/day vs control, mesangial cell signature
[4] = 30 mg/kg/day vs control, IL6 signaling
[5] = 30 mg/kg/day vs control, NF-kB signaling
[6] = 30 mg/kg/day vs control, PDGF signaling
[7] = 30 mg/kg/day vs control, cell proliferation signaling
[8] = 30 mg/kg/day vs control, inflammatory response signaling
[9] = 30 mg/kg/day vs control, mesangial cell signature

## CCCCN(CCCC)C(=O)CN1C[C@H](c2ccc3c(c2)OCO3)[C@@H](C(=O)O)[C@@H]1c1ccc(OC)cc1 [atrasentan, (2R,3R,4S)-4-(1,3-benzodioxol-5-yl)-1-[2-(dibutylamino)-2-oxoethyl]-2-(4-methoxyphenyl)pyrrolidine-3-carboxylic acid]
[1]
  Rapgef5 logFC: −0.3804
  Rhot2 logFC: 0.4576
  Slc7a1 logFC: −0.7304
  Slc12a2 logFC: −0.3373
  Slc38a1 logFC: −0.6989
  Smc3 logFC: −0.1696
  Sorbs2 logFC: −0.4717
  Tiam1 logFC: −0.9494
  Tuba4a logFC: 0.2861
  Vcl logFC: −0.3317
  Ythdc1 logFC: −0.0815
[2]
  Btg2 logFC: −0.6974
  Cdkn1a logFC: 0.2546
  Chst2 logFC: −0.368
  Csf1 logFC: −1.089
  Edn1 logFC: −1.328
  Eif2ak2 logFC: −0.3002
  F3 logFC: −0.5235
  Gabbr1 logFC: −0.1316
  Hpn logFC: 0.4187
  Il1r1 logFC: −0.8263
  Ly6e logFC: 0.2436
  Nfkb1 logFC: −0.616
  Nfkbia logFC: −0.7041
  Rnf144b logFC: −0.9765
  Ros1 logFC: −1.992
  Serpine1 logFC: −1.501
  Slc4a4 logFC: 0.5245
  Slc7a1 logFC: −0.7304
  Slc7a2 logFC: −1.336
  Slc11a2 logFC: 0.35
[3]
  Ahnak logFC: −0.7128
  Akap12 logFC: −0.5404
  Akt3 logFC: −0.4673
  Aldob logFC: 0.4923
  Ankrd12 logFC: −0.2463
  C7 logFC: −1.277
  Cald1 logFC: −0.5361
  Cblb logFC: −0.2068
  Ebf1 logFC: −0.3512
  Epb41l2 logFC: −0.6149
  Ets1 logFC: −0.3065
  Fchsd2 logFC: −0.1882
  Frmd4a logFC: −0.3955
  Gata3 logFC: −0.4924
  Gpx3 logFC: 0.71
  Igfbp7 logFC: 0.1088
  Lama2 logFC: −0.4437
  Maml2 logFC: −0.2311
  Mef2c logFC: −0.6302
  Meis1 logFC: −0.3593
  Myh9 logFC: −0.4543
  Myo1e logFC: −0.292
  Nbea logFC: −0.1933
  Nfkbia logFC: −0.7041
  Nr4a1 logFC: −1.621
  Piezo2 logFC: −0.6148
  Postn logFC: −2.293
  Pparg logFC: −0.5616
  Ppp1r12a logFC: −0.2135
  Prkg1 logFC: −0.328
  Psd3 logFC: −0.5227
  Ptprm logFC: −0.2678
  Rapgef5 logFC: −0.3804
  Raph1 logFC: −0.3852
  Rbms3 logFC: −0.7192
  Robo1 logFC: −0.7261
  Stard13 logFC: −0.6367
  Tacc1 logFC: −0.3693
  Tcf4 logFC: −0.224
  Tjp1 logFC: −0.3054
  Tns3 logFC: −0.3043
  Unc5c logFC: 0.3685
  Utrn logFC: −0.5143
  Zeb2 logFC: −0.6492
[4]
  Cntfr logFC: −0.9365
  Csf1 logFC: −1.26
  Il1r1 logFC: −0.6078
  Il2ra logFC: −1.58
  Map3k8 logFC: −0.8664
[5]
  Ackr3 logFC: 0.5485
  Btg1 logFC: −0.4825
  Btg2 logFC: −0.6689
  Ccn1 logFC: −0.9198
  Ccnd1 logFC: 0.6947
  Cdkn1a logFC: 0.6369
  Csf1 logFC: −1.26
  Dnajb4 logFC: −0.7534
  Edn1 logFC: −1.688
  Efna1 logFC: 0.7278
  Ehd1 logFC: 0.4138
  F3 logFC: −0.564
  Fosl2 logFC: −1.205
  Gem logFC: −1.912
  Id2 logFC: 0.5394
  Ifit2 logFC: −0.6119
  Jag1 logFC: −0.6784
  Klf2 logFC: −0.7182
  Klf4 logFC: −0.9474
  Map3k8 logFC: −0.8664
  Nfat5 logFC: −0.5845
  Nfkb1 logFC: −0.6498
  Nfkbia logFC: −0.7307
  Nr4a1 logFC: −1.803
  Nr4a2 logFC: −1.728
  Nr4a3 logFC: −1.939
  Per1 logFC: −0.9307
  Pfkfb3 logFC: −1.485
  Pnrcl logFC: 0.4856
  Rel logFC: −1.298
  Rhob logFC: −0.7265
  Serpine1 logFC: −1.387
  Snn logFC: 0.4725
  Spsb1 logFC: −1.097
  Tnfaip8 logFC: 0.517
  Traf1 logFC: −1.371
  Trib1 logFC: −1.074
  Zbtb10 logFC: −0.2912
[6]
  Hras logFC: 0.4354
  Map3k1 logFC: −0.7636
  Nfkb1 logFC: −0.6498
  Nfkbia logFC: −0.7307
  Pdgfb logFC: −0.5424
  Pdgfra logFC: −0.7094
  Pik3cg logFC: −0.7287
  Pik3r1 logFC: −0.6223
  Pla2g4a logFC: −0.9024
  Tiam1 logFC: −1.227
[7]
  Arid4a logFC: −0.5719
  Atrx logFC: −0.4031
  Bcar1 logFC: 0.4182
  Ccdc88a logFC: −0.7206
  Ccnd1 logFC: 0.6947
  Cep192 logFC: −0.43
  Cntrl logFC: −0.5569
  Dmd logFC: −0.405
  Epb41l2 logFC: −0.7021
  Fgd6 logFC: −0.6983
  Flna logFC: −0.6183
  Itsn1 logFC: −0.5129
  Kmt5a logFC: 0.4169
  Meis1 logFC: −0.4934
  Myh9 logFC: −0.6171
  Myh10 logFC: −0.5242
  Myo1e logFC: −0.4177
  Nin logFC: −0.7352
  Ophn1 logFC: −0.7129
  Rapgef5 logFC: −0.4225
  Rhot2 logFC: 0.5432
  Slc7a1 logFC: −0.7952
  Slc12a2 logFC: −0.3306
  Slc38a1 logFC: −0.8108
  Smc3 logFC: −0.4558
  Sorbs2 logFC: −0.3601
  Tiam1 logFC: −1.227
  Tuba4a logFC: 0.4958
  Vcl logFC: −0.3604
  Ythdc1 logFC: −0.3579
[8]
  Btg2 logFC: −0.6689
  Cdkn1a logFC: 0.6369
  Chst2 logFC: −0.9214
  Csf1 logFC: −1.26
  Edn1 logFC: −1.688
  Eif2ak2 logFC: −0.5033
  F3 logFC: −0.564
  Gabbr1 logFC: −0.5762
  Hpn logFC: 0.6197
  Il1r1 logFC: −0.6078
  Ly6e logFC: 0.6857
  Nfkb1 logFC: −0.6498
  Nfkbia logFC: −0.7307
  Rnf144b logFC: −0.8848
  Ros1 logFC: −1.985
  Serpine1 logFC: −1.387
  Slc4a4 logFC: 0.6146
  Slc7a1 logFC: −0.7952
  Slc7a2 logFC: −0.9808
  Slc11a2 logFC: 0.4205
[9]
  Ahnak logFC: −1.013
  Akap12 logFC: −0.8211
  Akt3 logFC: −0.4843
  Aldob logFC: 0.748
  Ankrd12 logFC: −0.4726
  C7 logFC: −1.079
  Cald1 logFC: −0.506
  Cblb logFC: −0.4288
  Ebf1 logFC: −0.4506
  Epb41l2 logFC: −0.7021
  Ets1 logFC: −0.3379
  Fchsd2 logFC: −0.3772
  Frmd4a logFC: −0.5742
  Gata3 logFC: −0.5216
  Gpx3 logFC: 1.122
  Igfbp7 logFC: 0.4259
  Lama2 logFC: −0.4895
  Maml2 logFC: −0.4441
  Mef2c logFC: −0.6869
  Meis1 logFC: −0.4934
  Myh9 logFC: −0.6171
  Myo1e logFC: −0.4177
  Nbea logFC: −0.432
  Nfkbia logFC: −0.7307
  Nr4a1 logFC: −1.803
  Piezo2 logFC: −0.8237
  Postn logFC: −1.247
  Pparg logFC: −0.6781
  Ppp1r12a logFC: −0.3826
  Prkg1 logFC: −0.6356
  Psd3 logFC: −0.5843
  Ptprm logFC: −0.5453
  Rapgef5 logFC: −0.4225
  Raph1 logFC: −0.5358
  Rbms3 logFC: −0.8895
  Robo1 logFC: −0.6009
  Stard13 logFC: −0.8466
  Tacc1 logFC: −0.4924
  Tcf4 logFC: −0.3055
  Tjp1 logFC: −0.3989
  Tns3 logFC: −0.4522
  Unc5c logFC: 0.9517
  Utrn logFC: −0.7697
  Zeb2 logFC: −0.6778
